One assay has as its target T1, IKKε (Homo sapiens, UniProt Q14164).
T1 construct: His-tag; made in house; host or cells: Sf9 insect cells
T1 sequence (Q14164 1-716): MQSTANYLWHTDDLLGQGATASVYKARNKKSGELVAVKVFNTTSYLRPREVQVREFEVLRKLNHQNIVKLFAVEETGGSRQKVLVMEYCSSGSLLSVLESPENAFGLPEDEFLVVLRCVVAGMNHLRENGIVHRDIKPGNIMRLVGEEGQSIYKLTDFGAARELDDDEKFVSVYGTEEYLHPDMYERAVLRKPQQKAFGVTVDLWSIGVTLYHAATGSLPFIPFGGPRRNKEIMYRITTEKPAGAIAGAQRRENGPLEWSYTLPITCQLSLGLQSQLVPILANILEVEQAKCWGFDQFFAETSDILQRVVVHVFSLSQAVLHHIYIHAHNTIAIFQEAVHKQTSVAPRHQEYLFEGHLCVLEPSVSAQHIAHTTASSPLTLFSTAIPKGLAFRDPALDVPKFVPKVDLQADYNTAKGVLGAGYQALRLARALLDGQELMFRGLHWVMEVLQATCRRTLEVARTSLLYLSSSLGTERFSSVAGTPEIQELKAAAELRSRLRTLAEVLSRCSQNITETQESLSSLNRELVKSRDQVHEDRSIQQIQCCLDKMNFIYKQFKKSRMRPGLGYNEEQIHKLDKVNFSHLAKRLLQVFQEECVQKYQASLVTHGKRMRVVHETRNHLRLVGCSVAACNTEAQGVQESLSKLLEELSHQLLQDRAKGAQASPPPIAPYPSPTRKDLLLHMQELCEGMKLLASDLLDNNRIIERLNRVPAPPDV
The assay is described as follows: In-vitro IKKε kinase assay ([γ33]ATP filter-plate). To be noted: text bins; read-out: IC50 for inhibition of the kinase activity of IKKε. Type of assay: biochemical. In a few lines:
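Phosphorylation of casein or myelin basic protein was counted by P-81 filter capture after 30-45 min reactions stopped with phosphoric acid, with counts normalized to DMSO after background subtraction. ATP was twice Km: 60 μM for TBK1 and 32 μM for IKKε, plus [γ33]ATP. Sf9-expressed His-tag enzymes were used at normal/sensitized levels of 0.1/0.02 μg/ml (TBK1) and 0.1/0.015 μg/ml (IKKε).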

In assay [1] the test system is IKKε-mediated phosphorylation of IRF3. In words: In-situ phosphorylation of IRF3 (pIRF3 Ser396 ELISA) in HEK293T cells cotransfected with IRF3 and IKKε. The class given is cell-based. To be noted: Homo sapiens, HEK-293T; HEK293T cells, 20 hours, text bins; read-out: IC50 for inhibition of the in-situ IKKε-mediated phosphorylation of IRF3. The method, then: HEK293T cells were cotransfected in a 10-cm dish with IRF3 and IKKε expression plasmids using Lipofectamine 2000 (Invitrogen, Carlsbad, Calif.). The following day, cells were replated at 20,000 per well in 96-well plates and treated with test compounds (compounds according to Formula I) for 20 hours. Cell lysates were prepared and analyzed using an ELISA for phospho-Ser396 (anti-IRF3 capture antibody, Santa Cruz Biotechnology, Inc., Santa Cruz, Calif.; anti-p-Ser396 IRF3 detection antibody, Cell Signaling, Danvers, Mass.). pIRF3 levels in compound treated cells were normalized to DMSO treated cells (no compound). Cell viability was assayed in a parallel set of plates to monitor cytotoxic effects of the test compounds (CellTiter-Glo, Promega, Inc., Madison, Wis.). TBK1 activity was tested by Western blotting using a phospho-specific IRF7 antibody. Similar to above, HEK293T cells were transfected with IRF7 and TBK1 expression plasmids. Cells were seeded in 12-well plates at 150,000 per well and treated overnight with test compounds. Protein lysates were prepared and processed for Western blotting followed by detection using a phosphor-Ser477/Ser479 IRF7 antibody (BD Biosciences, San Jose, Calif.)
For orientation: An ELISA detects its analyte on a solid surface through an enzyme-linked reagent.

As to `CC(C)(O)C(=O)Nc1cccc(Nc2nccc(-c3ccc(OC4CCOCC4)c(C#N)c3)n2)c1` [compound 563, N-[3-({4-[3-Cyano-4-(tetrahydro-2H-pyran-4-yloxy)phentyl]pyrimidin-2-yl}amino)phenyl]-2-hydroxy-2-methylpropanamide], the results for the IC50 (on IKKε; in assay [1]) were less than 5 nM and 100 to 250 nM, respectively.

`N#Cc1cc(-c2ccnc(Nc3ccc(S(N)(=O)=O)cc3)n2)ccc1OC1CCOCC1` [compound 564, 4-({4-[3-Cyano-4-(tetrahydro-2H-pyran-4-yloxy)phenyl]pyrimidin-2-yl}amino) benzenesulfonamide]: the figures for the IC50 (on IKKε; in assay [1]) were less than 5 nM and 100 to 250 nM, respectively.

Take `COC1CN(C(C)c2ccc(Nc3nccc(-c4ccc(OC5CCOCC5)c(C#N)c4)n3)cc2)C1` (centres unmarked) [compound 571, 5-[2-({4-[1-(3-Methoxyazetidin-1-yl)ethyl]phenyl}amino)pyrimidin-4-yl]-2-(tetrahydro-2H-pyran-4-yloxy)benzonitrile]: the IC50 (commonly the midpoint of a concentration-inhibition curve) at IKKε is less than 5 nM; in assay [1], less than 100 nM.

As to `CCN(CC)CCOc1cc(Nc2nccc(-c3ccc(OC4CCN(C(=O)[C@H](C)O)CC4)c(C#N)c3)n2)ccc1F` [compound 577, 5-[2-({3-[2-(Diethylamino)ethoxy]-4-fluorophenyl}amino)pyrimidin-4-yl]-2-({1-[(2S)-2-hydroxypropanoyl]piperidin-4-yl}oxy)benzonitrile], the values for the IC50 (on IKKε; in assay [1]) were less than 5 nM and 250 to 500 nM, respectively.

Regarding `N#Cc1cc(-c2ccnc(Nc3cccc(-n4cccn4)c3)n2)ccc1OC1CCOCC1` [compound 578, 5-(2-{[3-(1H-Pyrazol-1-yl)phenyl]amino}pyrimidin-4-yl)-2-(tetrahydro-2H-pyran-4-yloxy)benzonitrile], the IC50 at IKKε is less than 5 nM; in assay [1], 250 to 500 nM.

Turning to `N#Cc1cc(-c2ccnc(Nc3ccc(-n4cncn4)cc3)n2)ccc1OC1CCOCC1` [compound 580, 2-(Tetrahydro-2H-pyran-4-yloxy)-5-(2-{[4-(1H-1,2,4-triazol-1-yl)phenyl]amino}pyrimidin-4-yl)benzonitrile], the IC50 at IKKε was less than 5 nM; in assay [1] it was 250 to 500 nM.

As to `N#Cc1cc(-c2ccnc(Nc3ccc4[nH]cnc4c3)n2)ccc1OC1CCOCC1` [compound 583, 5-[2-(1H-Benzimidazol-5-ylamino)pyrimidin-4-yl]-2-(tetrahydro-2H-pyran-4-yloxy)benzonitrile], the figures for the IC50 (at IKKε; in assay [1]) were less than 5 nM and 250 to 500 nM, respectively.

Consider `CN(C)C1CCN(c2cccc(Nc3nccc(-c4ccc(OC5CCOCC5)c(C#N)c4)n3)c2)C1` (centres unmarked) [compound 591, 5-[2-({3-[3-(Dimethylamino)pyrrolidin-1-yl]phenyl}amino)pyrimidin-4-yl]-2-(tetrahydro-2H-pyran-4-yloxy)benzonitrile], for which the IC50 at IKKε was less than 5 nM; in assay [1], 100 to 250 nM.

In the case of `N#Cc1cc(-c2nc(Nc3ccc(N4CCOCC4)cc3)ncc2F)ccc1OC1CCOCC1` [compound 592, 5-(5-Fluoro-2-{[4-(morpholin-4-yl)phenyl]amino}pyrimidin-4-yl)-2-(tetrahydro-2H-pyran-4-yloxy)benzonitrile], the IC50 on IKKε is less than 5 nM; in assay [1], less than 100 nM.

Regarding `N#Cc1cc(-c2ccnc(Nc3ccc(S(=O)(=O)Nc4ccccn4)cc3)n2)ccc1OC1CCOCC1` [compound 593, 4-({4-[3-Cyano-4-(tetrahydro-2H-pyran-4-yloxy)phenyl]pyrimidin-2-yl}amino)-N-(pyridin-2-yl) benzenesulfonamide], the IC50 at IKKε is less than 5 nM; in assay [1], less than 100 nM.

Regarding `COc1cc(Nc2nccc(-c3ccc(OCC(C)C)c(C#N)c3)n2)ccc1CN1CC(OC)C1` [compound 600, 5-[2-({3-Methoxy-4-[(3-methoxyazetidin-1-yl)methyl]phenyl}amino)pyrimidin-4-yl]-2-(2-methylpropoxy) benzonitrile], the IC50 on IKKε was in the range of 5 to 50 nM; in assay [1], 100 to 250 nM.

Regarding `N#Cc1cc(-c2ccnc(Nc3ccc(-n4cnnc4)cc3)n2)ccc1OC1CCOCC1` [compound 607, 2-(Tetrahydro-2H-pyran-4-yloxy)-5-(2-{[4-(4H-1,2,4-triazol-4-yl)phenyl]amino}pyrimidin-4-yl)benzonitrile], the figures for the IC50 (on IKKε; in assay [1]) were less than 5 nM and 100 to 250 nM, respectively.

With `Cc1nccn1Cc1ccc(Nc2nccc(-c3ccc(OC4CCOCC4)c(C#N)c3)n2)cc1` [compound 609, 5-[2-({4-[(2-Methyl-1H-imidazol-1-yl)methyl]phenyl}amino)pyrimidin-4-yl]-2-(tetrahydro-2H-pyran-4-yloxy)benzonitrile], the IC50 was less than 5 nM at IKKε and less than 100 nM in assay [1].

As for `N#Cc1cc(-c2ccnc(Nc3ccc(/C=C/CN4CCOCC4)cc3)n2)ccc1OC1CCOCC1` [compound 614, 5-[2-({4-[(1E)-3-(Morpholin-4-yl)prop-1-en-1-yl]phenyl}amino)pyrimidin-4-yl]-2-(tetrahydro-2H-pyran-4-yloxy)benzonitrile], the figures for the IC50 (at IKKε; in assay [1]) were less than 5 nM and 250 to 500 nM, respectively.

For `COc1cc(Nc2nccc(-c3ccc(OCC4CC4)c(C#N)c3)n2)ccc1CN1CC(OC)C1` [compound 617, 2-(Cyclopropylmethoxy)-5-[2-({3-methoxy-4-[(3-methoxyazetidin-1-yl)methyl]phenyl}amino)pyrimidin-4-yl]benzonitrile], the values for the IC50 (at IKKε; in assay [1]) were less than 5 nM and 100 to 250 nM, respectively.

`N#Cc1cc(-c2ccnc(Nc3ccc(Cn4cncn4)cc3)n2)ccc1OC1CCOCC1` [compound 624, 2-(Tetrahydro-2H-pyran-4-yloxy)-5-(2-{[4-(1H-1,2,4-triazol-1-ylmethyl)phenyl]amino}pyrimidin-4-yl)benzonitrile]: the IC50 is less than 5 nM at IKKε and less than 100 nM in assay [1].

Turning to `Cc1ccc(Nc2nccc(-c3ccc(OC4CCOCC4)c(C#N)c3)n2)cc1NCCN(C)C` [compound 628, 5-[2-[[3-(2-dimethylamino-ethylamino)-4-methyl-phenyl]amino}pyrimidin-4-yl]-2-tetrahydropyran-4-yloxy-benzonitrile], the IC50 on IKKε is less than 5 nM; in assay [1] it was less than 100 nM.

`N#Cc1cc(-c2ccnc(Nc3ccc(Cn4cnnn4)cc3)n2)ccc1OC1CCOCC1` [compound 629, 2-(Tetrahydro-2H-pyran-4-yloxy)-5-(2-{[4-(1H-tetrazol-1-ylmethyl)phenyl]amino}pyrimidin-4-yl)benzonitrile]: the IC50 at IKKε is less than 5 nM; in assay [1], less than 100 nM.

As for `N#Cc1cc(-c2ccnc(Nc3cccc(CN4CCOCC4)c3)n2)ccc1OC1CCOCC1` [compound 638, 5-(2-{[3-(Morpholin-4-ylmethyl)phenyl]amino}pyrimidin-4-yl)-2-(tetrahydro-2H-pyran-4-yloxy)benzonitrile], the IC50 was less than 5 nM on IKKε and less than 100 nM in assay [1].

For `CN(C)Cc1cccc(Nc2nccc(-c3ccc(O[C@@H]4CCN(C(=O)CO)C4)c(C#N)c3)n2)c1` [compound 642, 5-[2-({3-[(Dimethylamino)methyl]phenyl}amino)pyrimidin-4-yl]-2-{[(3R)-1-(hydroxyacetyl)pyrrolidin-3-yl]oxy}benzonitrile], the values for the half-maximal inhibitory concentration (IC50) (at IKKε; in assay [1]) were less than 5 nM and less than 100 nM, respectively.

Consider `Cc1ccc(Nc2nccc(-c3ccc(O[C@@H]4CCN(C(=O)CO)C4)c(C#N)c3)n2)cc1C` [compound 643, 5-{2-[(3,4-Dimethylphenyl)amino]pyrimidin-4-yl}-2-{[(3R)-1-(hydroxyacetyl)pyrrolidin-3-yl]oxy}benzonitrile], for which the half-inhibitory concentration (IC50) was less than 5 nM at IKKε and 250 to 500 nM in assay [1].

On to `COCC(=O)Nc1cccc(Nc2nccc(-c3ccc(OC4CCOCC4)c(C#N)c3)n2)c1` [compound 647, N-[3-({4-[3-Cyano-4-(tetrahydro-2H-pyran-4-yloxy)phenyl]pyrimidin-2-yl}amino)phenyl]-2-methoxyacetamide], for which the IC50 is less than 5 nM on IKKε and less than 100 nM in assay [1].

(Values after patent US20150352108A1, “AMINO-PYRIMIDINE COMPOUNDS AS INHIBITORS OF TBK1 AND/OR IKK EPSILON” (Alzheimer's Institute of America, priority 2009, published 2015).)
